Reference: patent publication US7666619B2, “Compounds and methods for regulating bacterial growth and pathogenesis” (Princeton University, priority 2000, dated 2010)
Converted amounts (≈) assume the structure as drawn. “Also recorded” adds a separate entry of the source. Where two headings read alike, the source gives them in different places.

What was measured:
[1] = test system: V. harveyi reporter strain BB170 (Sensor 1−, Sensor 2+); assay: V. harveyi luminescence assay, test strain BB170 (AI-2 bioassay); type: cell-based, Vibrio harveyi; settings: for signaling activity (induction of luminescence): control experiments, reporter strain BB170
Experimental: FIG. 16 panels C and D show the effect of the same compounds on control strain JAF78. Strain BB170 synthesizes AI-2 starting at 4.5 hours into the assay. Light produced at the start of the assays is from AI-2 carried over from cells diluted from stationary phase. Strain JAF78 is a mutant strain in which light production is “locked on” and is unaffected by the presence or absence of autoinducer. Increase in light over the time course reflects increase in cell population density.
Density-dependent Bioluminescence Assay. […] The cell density was measured by diluting the same aliquots of cells used for measuring luminescence, spreading the dilutions onto solid LM medium, incubating the plates overnight at 30° C., and counting the resulting colonies the following day. Relative Light Units are (counts min^−1 ml^−1×10^3)/(colony forming units ml^−1). Cell-free culture supernatants from V. harveyi or S. typhimurium strains were added to a final concentration of 10% (v/v) at the time of the first measurement. In control experiments, 10% (v/v) of AB medium, LB medium or LB medium containing 0.5% glucose was added instead of cell-free culture fluids.
Assay for Production of Signaling Molecules. Cell-free culture fluids from E. coli, S. typhimurium and V. harveyi strains were tested for the presence of signaling substances that could induce luminescence in the V. harveyi reporter strain BB170 or BB886. In the assays, 10 μl of cell-free culture fluids from E. coli AB1157, E. coli DH5α, and S. typhimurium LT2 strains grown and harvested as described above were added to 96-well microtiter dishes. The V. harveyi reporter strain BB170 or BB886 was grown for 16 h at 30° C. with aeration in AB medium, diluted 1:5000 into fresh AB medium, and 90 μl of the diluted cells were added to the wells containing the E. coli and S. typhimurium cell-free culture fluids. Positive control wells contained 10 μl of cell-free culture fluid from strain V. harveyi BB152 (Autoinducer-1^−, Autoinducer-2^+) or V. harveyi BB120 (Autoinducer-1^+, Autoinducer-2^+). Negative control wells contained 10 μl of sterile growth medium. The microtiter dishes were shaken in a rotary shaker at 175 rpm at 30° C.
Bioluminescence Assay. […] Cell-free culture fluids from V. harveyi, E. coli, or S. typhimurium strains to be tested for AI-2 activity were prepared as described above, and assayed at 10% (v/v). AI-2 activity is reported as the fold-induction of the reporter strain over background, or as the percent of the activity obtained from V. harveyi BB120 (wild type) cell-free culture fluid.

[2] = test system: sensor-1+, sensor-2− mutant (BB886); assay: Microtiter luminescence assay with AI-1 and strain BB886; type: cell-based, Vibrio harveyi; settings: non self-stimulating strain BB886
[3] = test system: V. harveyi strains MM32, BB120, BB170; assay: Microtiter crystal violet biofilm formation assay; type: cell-based, Vibrio harveyi; settings: null mutant (AI-1−/AI-2−) V. harveyi
Experimental: Biofilm formation was measured using a microtiter-based assay. Free-swimming (planktonic) bacteria were cultured in AB or LB media supplemented with glucose in 96 well microtiter dishes. Biofilms typically formed along the walls of the wells at the interface of the liquid and air phase. At the end of the incubation, aliquots of a crystal violet solution (stock 0.1%) were added to the wells to stain both the adherent and the non-adherent cells. The wells were then washed with deionized water to remove non-adherent cells, and the bound crystal violet solubilized with 200 microliters of water. Absorbance reading at 600 nm (A600) were used to quantitate the amount of crystal violet dye that had adhered to the biofilms. When indicated, synthetic AI-2 was added to the wells at the beginning of the cultures.
Various amounts of synthetic AI-2 were added to the initial free-swimming bacterial cultures in LB media supplemented with glucose, and biofilm formation measured at the end of the incubation.

[4] = test system: AI-2 mediated luciferase expression in V. harveyi; assay: V. harveyi bioassay, tester and control strains, bioluminescence intensity; type: cell-based, Vibrio harveyi
Experimental: The results are normalized to cell count and control strain.
The inhibition of an AI-2 mediated response was further measured in the V. harveyi bioassay. Compound QXP031 was tested against V. harveyi tester and control strains. […] The results are normalized to cell count and any minimal effects seen in the control strain. The fold difference in bioluminescence intensity at the different drug concentrations versus no drug control is indicated above the appropriate bars in FIG. 21.

[5] = test system: S. pyogenes 19615 proteolytic activity; assay: Skim milk plate proteinase assay; type: cell-based, Streptococcus pyogenes; settings: filter disk, anaerobic overnight 37° C.
Experimental: Skim milk containing plates were overlaid with top agar containing S. pyogenes 19615. Filter disks containing either DMSO no compound control or compound QXP031 were applied to plates and incubated anaerobically overnight at 37° C.
Proteinase activity is an important component of the virulence response in many pathogenic bacteria. Skim milk containing agar plates can be used to score for proteinase activity in a variety of bacteria. Proteolytic activity is scored as a clearing zone surrounding a test inoculum. The clearing zone is the result of the proteolytic breakdown of the milk proteins suspended in the agar plates. Regions where milk protein is not broken retain a milky opaque appearance.

[6] = test system: CAMP expression by S. pyogenes 19615; assay: CAMP assay (S. aureus 25923 streak, S. pyogenes 19615 streaks, sheep blood agar); type: cell-based, Streptococcus pyogenes
Experimental: The horizontal streak is S. aureus 25923 and the vertical streaks are S. pyogenes 19615. Filter disks containing either DMSO no drug control or compound QXP031 were applied to plates and incubated anaerobically overnight at 37° C.
Many streptococci produce a diffusible extracellular protein (CAMP) that acts synergistically with staphylococcal beta lysin to lyse erythrocytes on trypticase soy agar plates containing sheep blood. Hemolysis of erythrocytes is an important component of the virulence response in many pathogenic bacteria. A single straight streak of a beta lysin producing S. aureus strain is made. Steptococci to be tested are streaked perpendicular to the S. aureus streak.

[7] = test system: Streptococcus pyogenes ATCC 19615; assay: Antibiotic susceptibility assay (NCCLS broth microdilution); type: cell-based; settings: for MIC: Streptococcus pyogenes, ATCC19615
Experimental: (§1) Antimicrobial susceptibility testing was conducted according to the National Committee for Clinical Laboratory Standards (NCCLS) reference method “Broth Dilution Procedure (Microdilution)” published January 1977 (UPDATE VERSION). The method yields a minimum inhibitory dose (MIC) required for complete inhibition of bacterial growth. MICs were determined using a dilution series of antibiotic, in which all of the wells contained a constant concentration of the inhibitor compound was maintained. In addition, before the instant susceptibility tests were performed, the inhibitor compounds were tested in the appropriate inhibitor screens (See, for example, FIG. 32 for the AI-2 inhibitor 2-ethyl-4-hydroxy-5-methyl-3(2H)-furanone). […] Experiments were conducted in 96 well microtiter plates using a final volume of 0.1 ml/well. Assays were conducted using either Mueller-Hinton broth, Todd-Hewitt broth, or Nutrient Broth (Difco). The bacterial innoculum was prepared from a log phase overnight culture of Streptococcus pyogenes ATCC 19615 or Staphylococcus aureus ATCC 25923. Turbidity of the cultures was adjusted with saline to 0.05 McFarland standard (10^7 CFU/ml), and 5 microliters of this innoculum was added to each well. The inhibitor compounds were prepared by dissolving a stock solution in water. Working stocks of quorum inhibitors compounds were made by diluting the stock solutions with bacterial broth. Sodium salts of the antibiotics were used in these experiments. A stock solution (10 mg/ml) was prepared as stipulated by the manufacturer by dissolving a weighed amount of antibiotic in water or DMSO. All antibiotics were added in two-fold serial dilutions to a series of wells to yield final concentrations ranging from 100 μg/ml to 0.1 μg/ml. The single exception was sulfisoxazole where the range of final doses ranged from 300 μg/ml to 2.5 μg/ml. Bacterial broth was used as the diluent. The range of antibiotic concentrations used were chosen to be at and below the MIC for the antibiotic alone. Cultures were sealed and incubated for 20 hours at 37° C. MIC values were determined by spectrophotometric measurements of absorbance at 600 nm. […] Fold-changes in MIC concentration were determined by comparing the MIC for antibiotic and quorum inhibitor compounds with the MIC measured using antibiotic alone.

[8] = test system: Streptococcus pyogenes ATCC 19615; assay: Cell growth monitored by absorbance at 600 nm; type: cell-based; settings: 2.4 μg/ml or 2.5 mg/ml
Experimental: Streptococcus pyogenes ATCC 19615 was grown in the presence of either 2.4 μg/ml or 2.5 mg/ml of compound QXP-035. Cell growth was monitored by taking periodic measurements of absorbance at 600 nm.

[9] = test system: MM32 indicator strain (LuxS−, LuxN−) of V. harveyi; assay: MM32 bioluminescence assay; type: cell-based, Vibrio harveyi; settings: autoinducer-2 25 μg/ml, QXP-048 25 μg/ml
Experimental: The MM32 indicator strain (LuxS−, LuxN−) of V. harveyi was incubated with various doses of AI-2 and the bioluminescence signal measured at various time points during a 6-hour incubation.
Exogenous synthetic autoinducer-2 was added at the outset of the assay at a final concentration of 25 μg/ml. QXP-048 was added at the outset of the assay at a final concentration of 25 μg/ml. […] Exogeneous synthetic autoinducer-2 was added at the outset of the assay to a final concentration of 25 μg/ml. QXP-048 was added at the outset of the assay at a final concentration of 25 μg/ml.
The invention provides a luxN− and luxS− strain of V. harveyi, designated MM32, for identifying inhibitors of the quorum-sensing pathway. […] Further, since MM32 cannot produce AI-2, addition of exogenous AI-2 or its analogs allows rapid identification of inhibitors of AI-2.

[10] = test system: Staphylococcus aureus ATCC 25923; assay: Antibiotic susceptibility assay (NCCLS broth microdilution); type: cell-based; settings: with 2-ethyl-4-hydroxy-5-methyl-3(2H)-furanone at 25 μg/ml
Experimental: as §1

AI-2 = assay: Inhibition of AI-2 initiated activation of a biochemical pathway
Text: It is an object of the invention to provide compounds and methods for regulating the activity of autoinducer-2 receptors such as LuxP or LuxQ. Compounds of the invention include those that interact with LuxP or LuxQ. Specifically, the invention provides a method for the regulation of LuxP or LuxQ protein resulting in the regulation of bacterial cell growth or the regulation of bacterial pathogenicity by regulating the expression of a factor associated with bacterial virulence. The method of the invention envisions contacting LuxP or LuxQ with pentenomycin, or derivatives thereof, such that LuxP or LuxQ activity is regulated. Pentenomycin has previously been identified as having antibiotic activity. […] The chemical structure of pentenomycin, and derivatives thereof (see below), is/are similar to that of the structure of autoinducer-2 as identified in the present study.

With `O=C(O)CCC(=O)C(=O)O` [-ketoglutarate] the “signaling activity (induction of luminescence)” value (“signaling activity” for short) [1] was “lacked activity”.
For `C[C@@H](O)CC(=O)N[C@H]1CCOC1=O` [AI-1, N-(3-hydroxybutanoyl)-L-homoserine lactone, reference compound], the “lowest concentration to which the assay was sensitive” value [2] was 100 nM and the “biofilm production after addition to the medium” value [3] was “allows (AI-1−/AI-2−) V. harveyi to produce biofilm”.
In the case of `OC[C@H]1OC(O)[C@H](O)[C@@H](O)[C@@H]1O` (stereo partly shown) [Glucose], the “signaling activity” value [1] is reported as “lacked activity”.
`CC(=O)O[C@H]1C=CC(=O)C1` [QXP031, (R)-4-acetoxy-cyclopent-2-eneone] was tested, and the “effect on AI-2 mediated luciferase expression” value ([4]; at the concentrations indicated in FIG. 21) was “specifically inhibited”, the “specific decrease in bioluminescence as a result of AI-2 inhibition” value ([4]; various concentrations, normalized to cell count and control strain) was “up to 15000 fold” and the “proteolysis of milk protein” value [5] was “inhibition of S. pyogenes proteolytic activity; also recorded: proteolysis was inhibited”. The CAMP score [6] was “negative CAMP score” and the “hemolysis in CAMP assay” value ([6]; filter disk, anaerobic overnight 37° C.) was “complete inhibition of hemolysis”.
With `CCC1OC(C)=C(O)C1=O` (stereo not shown) [QXP-035, 2-ethyl-4-hydroxy-5-methyl-3(2H)-furanone] the MIC ([7]; compound alone, read-out: MIC) was > 100 µg/mL, the “effect on cell growth” value [8] was “did not inhibit cell growth” and the “effect on AI-2-dependent bioluminescence” value ([1]; BB170, various amounts, monitored over time) was “inhibition of bioluminescence”.
For `COC1(c2ccccc2)OC=C(c2ccccc2)C1=O` (stereo not shown) [QXP-048, 2-methoxy-2,4-diphenyl-3(2H)furanone], the “effect on signal from exogenous synthetic autoinducer-2” value [9] was “inhibitory capability”.
For `CC(=O)O` [acetate], the “signaling activity” value [1] was “lacked activity”.
In the case of `CC1(C)S[C@@H]2[C@H](NC(=O)[C@H](N)c3ccccc3)C(=O)N2[C@H]1C(=O)O` [ampicillin], the “MIC of antibiotic combined with quorum inhibitor” value (from here on “MIC … with quorum inhibitor”) [10] is reported as 0.4 µg/mL.
In the case of `N[C@H]1CCOC1=O` [homoserine lactone], the “signaling activity” value [1] is reported as “lacked activity”.
In the case of `O=C1C=C[C@H](O)[C@@]1(O)CO` [pentenomycin], the “effect on AI-2 initiated activation of a biochemical pathway” value (AI-2) is reported as “acts as an inhibitor”.
In the case of `Cc1noc(NS(=O)(=O)c2ccc(N)cc2)c1C` [sulfisoxazole], the “synergy in combination with 2-ethyl-4-hydroxy-5-methyl-3(2H)-furanone” value [7] is reported as “marked synergies”, the MIC ([7]; compound alone, read-out: MIC) is reported as ~300 µg/mL (≈ 1120 µM) and the “MIC … with quorum inhibitor” value ([7]; with 2-ethyl-4-hydroxy-5-methyl-3(2H)-furanone at 100 micrograms per milliliter) is reported as “approximately 100 μg/ml”.
With `CN[C@H](CC(C)C)C(=O)N[C@H]1C(=O)N[C@@H](CC(N)=O)C(=O)N[C@H]2C(=O)N[C@H]3C(=O)N[C@H](C(=O)N[C@H](C(=O)O)c4cc(O)cc(O)c4-c4cc3ccc4O)[C@H](O)c3ccc(c(Cl)c3)Oc3cc2cc(c3O[C@@H]2O[C@H](CO)[C@@H](O)[C@H](O)[C@H]2O[C@H]2C[C@](C)(N)[C@H](O)[C@H](C)O2)Oc2ccc(cc2Cl)[C@H]1O` [vancomycin] the “synergy in combination with 2-ethyl-4-hydroxy-5-methyl-3(2H)-furanone” value [7] was “marked synergies”, the MIC [7] was ~100 µg/mL (≈ 69 µM) and the “MIC … with quorum inhibitor” value ([7]; with 2-ethyl-4-hydroxy-5-methyl-3(2H)-furanone at 5 μg/ml, compared with vancomycin alone) was “approximately the same MIC”. For the same compound, the “MIC … with quorum inhibitor” value ([7]; with 2-ethyl-4-hydroxy-5-methyl-3(2H)-furanone at 12.5 μg/ml) was “approximately 1.6 micrograms/milliliter” and the “MIC … with quorum inhibitor” value ([7]; with 2-ethyl-4-hydroxy-5-methyl-3(2H)-furanone at 50 μg/ml, compared with 12.5 μg/ml) was “the same MIC”.
